Patent US6482939B1, “Form vi 5,6-dichloro-2-(isopropylamino)-1-(β-l-ribofuranosyl)-1h-bezimimidazole” (SmithKline Beecham Corporation, priority 1998, dated 2002)

Key:
Assay type in all cases: physicochemical
[1] = Gravimetric water vapor sorption (moisture sorption isotherm)
Protocol: Moisture adsorption/desorption studies were conducted on a VTI vacuum microbalance at 25° C. after drying the sample at 60° C. under vacuum. Moisture adsorption was monitored under vacuum from 0 to 95% relative humidity and desorption was monitored from 95% down to 5% relative humidity. The criteria for equilibrium at a given relative humidity was less than 3 μg of weight change in 18 minutes.

[2] = Total volatile content by thermogravimetric analysis (TGA); details: TA Instruments Hi-Res TGA 2950 thermogravimetric analyzer (FIG. 7)
Protocol: Accordingly, in a second aspect of the present invention there is provided the compound of formula (I) form VI, having a total volatile content of not more than 0.3% by weight (w/w) as determined by a TA Instruments Hi-Res TGA 2950 thermogravimetric analyzer (FIG. 7).
Differential scanning calorimetry (DSC) was performed on a TA Instruments DSC 2920 Differential Scanning Calorimetor equipped with a DSC auto sampler. Samples of 1 to 3 mg were crimped in standard aluminum pans with holes and heated from 25° C. to 250° C. at a rate of 10° C./minute under nitrogen purge. The percentage of total weight loss of the drug substance was determined on a TA Instruments Hi-Res TGA 2950 thermogravimetric analyzer (TGA) with a nitrogen purge.

[3] = Thermodynamic stability among crystalline forms
[4] = Stability samples stored at elevated temperature/relative humidity, examined for crystal form; details: 80° C./50% RH, 60° C./75% RH, 60° C./50% RH and 40° C./75% RH, sealed conditions, 2 months

| Compound | hygroscopicity [1] | water absorbed ([1]; equilibrated up to 95% relative humidity at ambient temperature (FIG. 8)) [%] | total volatile content [2] | thermodynamic stability relative to other forms [3] | solid form stability on storage (conversion of crystal form) [4] |
| --- | --- | --- | --- | --- | --- |
| CC(C)Nc1nc2cc(Cl)c(Cl)cc2n1[C@H]1O[C@@H](CO)[C@H](O)[C@@H]1O [Form VI, 5,6-dichloro-2-(isopropylamino)-1-(β-L-ribofuranosyl)-1H-benzimidazole] | essentially non-hygroscopic | 0.3 | not more than 0.3 % by weight (w/w) | most thermodynamically stable form |  |
| CC(C)Nc1nc2cc(Cl)c(Cl)cc2n1[C@H]1O[C@@H](CO)[C@H](O)[C@@H]1O [ethanolate, 5,6-dichloro-2-(isopropylamino)-1-(β-L-ribofuranosyl)-1H-benzimidazole] |  |  |  |  | partially or completely converted to Form VI |
